How the values were obtained:
[1] = tested on: susceptible E. coli HB101 K-12 (no β-lactamase); experiment: Broth microdilution (preliminary, Table 1), susceptible K-12; format: cell-based, Escherichia coli; details: for IC50: Escherichia coli, Susceptable K-12 E. coli, LB, OD600, preliminary results
Experimental: In order to determine the antibiotic activity of DB4-51, a debilitated strain of Escherichia coli (HB101 K-12) was transformed with the pGLO plasmid from Bio-Rad in order to express β-lactamase. This transformation was confirmed by growing on a selective medium containing 100 μg/ml ampicillin in Lennox LB with 1.5% agar. A broth microdilution assay was employed to determine the relative activity of DB4-51 against susceptible (HB 101 K-12, no β-lactamase) and resistant (HB 101 K-12 transformed to express β-lactamase) E. coli. Using Lennox LB as the medium. serial dilutions of the test compounds were performed in a 96-well plate and then inoculated with E. coli before incubating for 16-20 hours at 35° C. The bacterial growth was monitored by recording each well's absorbance at 600 nm (OD600.) The OD600 values of E. coli suspensions incubated with various compounds were compared in order to assess their activities.
FIG. 7: OD600 of susceptible and resistant K-12 E. coli cultures against DB4-51 and known antibiotics as a function of concentration. Ampicillin has a penicillin core and cephalexin has a cephalosporin core. Cultures were grown in LB broth at 37° C. while shaking at 200 rpm for 18 hours and then diluted to an OD600 of 0.005 before adding the compounds. Plates were grown at 35° C. while shaking at 200 rpm and the OD600 was recorded after 18 hours.
Table 1: Calculated IC50 values for DB4-51, cephalexin, ampicillin, and pyrithione. These values were derived by fitting the data to a log dose-response curve and reporting the concentration corresponding to half the maximum OD600 value for each compound.

[2] = Calcein fluorescence assay for Cu competition; format: physicochemical
Experimental: FIG. 11: To solutions of 2 μM calcein in pH 7.4 PBS was added 2.4 μM CuCl2 and the samples were fully equilibrated at room temperature for 2 hours. Next, 20 μM TAT, 20 μM DB4-162, 0.1 units/mL β-lactamase were added and the fluorescence at 500 nm was recorded after one hour.
A calcein fluorescence assay for metal competition was utilized in order to evaluate the relative metal-binding affinity of DB4-51 compared to PT. The fluorescence intensity of the probe calcein is quenched by more than 90% upon binding Cu^2+. […] However, when incubated with 10 equivalents of DB4-51 and 0.1 units/mL Type III β-lactamase from Enterobacter cloacae, there is an 85% return in calcein fluorescence, which correlates well with the 90% return observed for PT itself at the same concentration.
FIG. 4: Relative Cu binding assay with DB4-51 and PT against calcein. Solutions of 2 μM calcein and 2.4 μM CuCl2 in pH 7.4 PBS were equilibrated at room temperature for 2 hours prior to addition of 20 μM PT, 20 μM DB4-51, and/or 0.1 units/mL β-lactamase (Bla).
The calcein assay was utilized in order to assess the relative copper chelating ability of the prochelator and TAT. The fluorescence emission of calcein is quenched by more than 90% in the presence of 1.2 equivalents of CuCl2 (FIG. 11). […] The addition of 0.1 units/mL β-lactamase alone has no effect on the quenched fluorescence signal of the Cu-calcein solution. […] However, when incubated with 10 equivalents of DB4-162 and 0.1 units/mL β-lactamase there is a 90% return in calcein fluorescence. […] While it is unclear why 10 equivalents of TAT are insufficient to out-compete calcein for copper, it may be related to the propensity of TAT to form other species in aqueous media.

[3] = 2 μM calcein + 2.4 μM CuCl2, pH 7.4 PBS, 20 μM (10 equivalents) compound alone, 1 h
[4] = as above, 10 equivalents compound + 0.1 units/mL β-lactamase

Row | SMILES | IC50 [1] [µM] | activity against susceptible strain (FIG. 7) ([1]; susceptible strain of E. coli) | return in calcein fluorescence [2, 3] | return in calcein fluorescence [2, 4] [%]
1 | CC1(C)S[C@@H]2[C@H](NC(=O)[C@H](N)c3ccccc3)C(=O)N2[C@H]1C(=O)O [Ampicillin] | < 18 | very active |  | 
2 | O=C(Cc1ccccc1)N[C@@H]1C(=O)N2C(C(=O)O)=C(CSc3cccc[n+]3[O-])CS[C@H]12 [DB4-51, 2-((((6R,7R)-2-carboxy-8-oxo-7-(2-phenylacetamido)-5-thia-1-azabicyclo[4.2.0]oct-2-en-3-yl)methyl)thio)pyridine 1-oxide] | 80 |  | does not compete with calcein for Cu binding | 85
3 | Cc1csc(=S)n1OCC1=C(C(=O)O)N2C(=O)[C@@H](NC(=O)Cc3ccccc3)[C@H]2SC1 [DB4-162, (6R,7R)-3-(((4-methyl-2-thioxothiazol-3(2H)-yl)oxy)methyl)-8-oxo-7-(2-phenylacetamido)-5-thia-1-azabicyclo[4.2.0]oct-2-ene-2-carboxylic acid] |  |  | approximately 50% | 90
4 | [O-][n+]1ccccc1S [PT, 2-mercaptopyridine N-oxide] | < 18 |  | 90% | 

Source: patent US10533018B2, “Antimicrobial prochelators to target drug-resistant bacteria and methods of making and using the same” (Duke University, priority 2015, dated 2020)
